Data published in patent EP0108854A1, “Drug for stimulating hepatic cell homeostasis and for restoring the functional capacity of the hepatocytes” (ARCONTHORN LIMITED, priority 1982, dated 1984).

Columns and labels:
[1] = system: liver damage in rats induced by allyl alcohol; assay: Activity against liver damage in rats induced by allyl alcohol; type: in vivo
Description: Experiments were carried out on the activity of the drug of this invention on liver damage in rats induced by allyl alcohol. This damage was evaluated by means of the weight of the liver, the quantity of lipids in the tissue itself and tHe excretion of BSP in the bile, as well as the changes in the GOT, GPT and the alkaline phosphatase levels in the blood.
The respective administrations to the rats were carried out intraperitoneally for 4 days. From the data in Table III it is seen that the weight of the rats'livers increased from […] in rats poisoned with allyl alcohol while the increase was only up to 5.30 mg in rats fed intraperitoneally with allyl alcohol and aminoethanethiosulphonic acid (drug of the invention). When allyl alcohol and the drug known by the name Thiola (100mg/^kg/day) was administered to the rats the liver weight increased to about 5.85 mg.

[2] = system: WISTAR RATS KEPT ON A MORRIS DIET; assay: Protection in Wistar rats kept on a Morris diet for 45 days; type: in vivo; details: Morris diet 45 days; (XX) 100 mg/kg, phosphorylcholine 50 mg/kg
Description: (§1) Table IV below gives data relative to the protection offered by the administration of aminoethanethiosulphonic acid (100 mg/kg/day) and a control drug (phosphoryl- , choline, 50 mg/kg/day) to groups of Wistar rats subjected to two different atherogenic diets, specifically the Morris diet and the Handler diet, for 45 days. The data, in general, substantially repeated those observed in experiments carried out on aminals subjected to the Nath diet.

rats fed with Nath diet [3] = assay: Nath diet experiments in the same manner, comparison with other drugs at present in use (25th, 35th, 45th day); type: in vivo; details: for increase in cholesteraemia: aminoethanethiosulphonic acid 100 mg/kg, phosphorylcholine dose not stated; for increase in triglyceridemia: Nath diet alone 100%
Description: Experiments were carried out in the same manner as explained above with other drugs at present in use and, more particularly, phosphorylcholine (2 doses/25 and 50 mg/kg), sillimarine (Legalon, 70 mg/kg), S-adenosyl-1-methionine (Samyr) 25 mg/kg.
In rats fed solely with the Nath diet, the increase is, however, 100%. Among the control drugs, only phosphorylcholine (50 mg/kg) achieves a slight reduction (-20%) relative to the increase observed at the end of the period with the atherogenic diet. • - as regards the cholesteraemia the protective action shown by the drug of the invention was significant. Indeed, in rats fed with the drug phosphorylcholine,a 300% increase was found after 25 days and 320% and 410% increases respectively were found on the 35th and 45th days of feeding while in rats fed with aminoethanethiosulphonic acid (100mg/kq) the increase in cholesteraemia was only 35% on the 25th and on the 35th days. On the 45th day the increase was 50%.

[4] = system: WISTAR RATS ON A HANDLER DIET; assay: Protection in Wistar rats on a Handler diet for 45 days; type: in vivo; details: Handler diet 45 days; (XX) 100 mg/kg, phosphorylcholine 50 mg/kg
Description: as §1

[5] = Toxicology, administration kept up for 180 days; type: in vivo; details: daily dose of 200 mg/kg of body weight
Solubility in water = type: physicochemical
rats fed with Nath diet [6] = assay: Antidyslipaemic effect in rats fed with Nath diet for 45 days (evaluations on 28th and 45th day); type: in vivo, female Wistar rats; details: for blood triglyceride level: 28th day of treatment, aminoethanethiosulphonic acid dose printed as 10 mg/kg/day, tiadenol 100 mg/kg/day (Group C); for increase in pyruvic transaminase (GPT) level compared with the controls: Nath diet alone 60%; for increase in glutamic oxaloacetic transaminase (GOT) level compared with the controls: Nath diet alone 109%
Description: The aminoethanethiosulphonic acid, which constitutes the drug of this invention was tested experimentally on female Wistar rats to establish its antidyslipaemic effect in comparison with drugs already in use therapeutically. For this experiment, the rats were divided into five groups of five rats which were fed in accordance with the following scheme: • GROUP "A": rats fed with a normal diet of nutritive pellets having the following composition: Composition of the nutritive pellets: [formula] with the addition of vitamins (A-D3-E-C), NaCl, CaCO3 and spring water at will. • GROUP "B": rats fed with Nath diet (Nath et al. 1959 - Journal of Nutrition, 67-289). • GROUP "C": rats fed with a Nath diet incorporating the drug tiadenol (1.25 q/kg)such that the rats could take up the drug in quantities of 100 mg/kg/day. • GROUP D: rats fed with a Nath diet incorporating the drug of the invention (1.25 g/kg of aminoethanethiosulphonic acid) such that the rats could take up the drug in quantities of 100 mg/kg/day. • GROUP"E":rats fed with a Nath diet incorporating the drug of the invention (aminoethanethiosulphonic acid) in quantities of 2.5 g/kg, so that the rats could take up the drug in quantities of 200 mg/kg/day.
The experiments were carried out over a period of 45 days. On the 28th day of treatment, the cholesteraemia and the blood triglyceride level of the rats were measured.
On the 45th day from the start of the treatment, however a whole series of systematic weight and hematochemical evaluations was carried out in accordance with the following scheme: • - liver weight/body weight percentage ratio • - ratio of the weight of the liver when removed/dry weight of the liver • - cholesteraemia according to the Watson method (1) • - blood triglyceride level according to the Bermryer method (2) • - blood alkaline phosphatase level (3,4) • - glutamic oxaloacetic transaminase level according to the Karmen method (5,6) • - glutamic pyruvic transaminase level according to the Wroblewski and La-Due method (7) • - total lipid content of the liver by extraction with ether, separation by decantation, evaporation of the ether part in an oven and weighing of the residue. • 1. - WATSON D. (1960) Clin. Chim. Acta, 5 : 637 • 2. - BERGMRYER H.U. (1975) Z. Klin. Chem. and Klin. Biochem.13 : 507 • 3; - Anon. (1970) Z.Klin. Chem. and Klin.Biochem 13 : 507. • 4. - Anon.(1972) Z.Klin. Chem. and Klin. Biochem 13 : 507. • 5. - KARMEN A. and coll. (1955) J. Clin. Invest. 34 : 126. • 6. - KARMEN A. (1955) J. Clin Invest. 34 : 131 • 7. - WROBLEWSKI F. and coll. (1956) Proc. Soc. exp. Biol. Med. 91 : 569.
Macroscopic and microscopic, anatomical-pathological examinations of the liver and of the thoracic aorta were carried out on all the animals, the microscopic examinations being carried out by means of preservation in formalin,enclosure and colouration with hematoxylin- eosin and selective dyes for the lipids according to the current methods.

[7] = Stability in the solid state; type: physicochemical; details: even at 50°C for very long periods of time
rats fed with Nath diet [8] = assay: Antidyslipaemic effect in rats fed with Nath diet for 45 days (evaluations on 28th and 45th day); type: in vivo, female Wistar rats; details: 28th day of treatment, tiadenol 100 mg/kg/day (Group C)
[9] = 100 mg/kg/day i.p. for 4 days, allyl alcohol 2 ml/kg p.o. 30 minutes after last administration
[10] = 100 mg/kg/day i.p. for 4 days, allyl alcohol 2 ml/kg p.o. 30 minutes after last administration, listed as (XX)

Compound	LIVER Weight [1, 9]	SERUM BSP [1, 9] [µg/mL]	SERUM GOT [1, 9] [mU/ml]	SERUM GPT [1, 9] [mU/ml]	BETALIPOPROTEINS, protection [2] [%]	CHOLESTERAEMIA, protection [2] [%]	HEPATIC LIPIDS, protection [2] [%]	TOTAL BLOOD LIPIDS, protection [2] [%]	increase in cholesteraemia (rats fed with Nath diet [3]; 25th day) [%]	increase in cholesteraemia (rats fed with Nath diet [3]; 35th day) [%]	increase in cholesteraemia (rats fed with Nath diet [3]; 45th day) [%]	CHOLESTERAEMIA, protection [4] [%]	HEPATIC LIPIDS, protection [4] [%]	TOTAL BLOOD LIPIDS, protection [4] [%]	TRIGLYCERIDEMIA, protection [4] [%]	blood triglyceride level (rats fed with Nath diet [6]) [mg%]	increase in pyruvic transaminase (GPT) level compared with the controls (rats fed with Nath diet [6]; 45th day, 100 mg/kg/day) [%]	increase in glutamic oxaloacetic transaminase (GOT) level compared with the controls (rats fed with Nath diet [6]; 45th day, 100 mg/kg/day) [%]	blood cholesterol level (rats fed with Nath diet [8]) [mg%]	other results
CC(S)C(=O)NCC(=O)O (centres unmarked) [Thiola]	about 5.85 mg	21.78 ± 2.99	388.0 ± 25.8	99.4 ± 12.2	–	–	–	–	–	–	–	–	–	–	–	–	–	–	–	LIVER Lipids Tot. [1, 9]: 5.23 ± 0.30 mg%; SERUM ALKALINE PHOSPHATASE [1, 9]: 3.13 ± 0.23 U/ml; protection against the increase in the total lipid content of the liver ([1]; after allyl alcohol, 100 mg/kg/day i.p.): did not give any protection
C[N+](C)(C)CCOP(=O)(O)O [phosphorylcholine, reference compound]	–	–	–	–	8	12	12	5	300	320	410	15	23	10	7	–	–	–	–	reduction in triglyceridemia relative to the increase observed at the end of the period with the atherogenic diet (rats fed with Nath diet [3]; 50 mg/kg): -20%
NCCS(=O)(O)=S [aminoethanethiosulphonic acid]	5.30	12.31 ± 0.91	172.0 ± 10.2	25.9 ± 2.5	45	60	50	40	35	35	50	35	50	33	30	31	90	23	129	mortality [5]: did not result in any increase in mortality; weight curve [5]: nor any variation in the weight curve; solubility in water (Solubility in water): soluble in water; increase in the quantity of lipids in the tissue (hepatic parenchyma) (rats fed with Nath diet [3]; 25th day, 100 mg/kg, Nath diet alone + 155): 50%; increase in the quantity of lipids in the tissue (hepatic parenchyma) (rats fed with Nath diet [3]; 25th day, 200 mg/kg, Nath diet alone + 155): 95%; increase in triglyceridemia (rats fed with Nath diet [3]; 35th day, 100 mg/kg/day): 15%; increase in triglyceridemia (rats fed with Nath diet [3]; 35th day, 200 mg/kg/day): 40%; increase in the quantity of lipids in the tissue (hepatic parenchyma) (rats fed with Nath diet [3]; 45th day, 100 mg/kg, Nath diet alone + 225): 98%; increase in the quantity of lipids in the tissue (hepatic parenchyma) (rats fed with Nath diet [3]; 45th day, 200 mg/kg, Nath diet alone + 225): 110%; increase in the hepatic lipid infiltration compared with the control animals (rats fed with Nath diet [6]; 45th day, 100 mg/kg/day, Nath diet alone 235%): 117%; stability in the solid state [7]: considerable stability in the solid state; LIVER Lipids Tot. [1, 10]: 5.08 ± 0.39 mg%; LIVER Weight [1, 10]: 5.30 ± 0.05; LIVER Lipids Tot. ([1]; 100 mg/kg/day i.p. for 4 days, allyl alcohol 2 ml/kg p.o. 30 minutes after last administration, listed as drug of the invention): 5.08 mg%
C[S+](CC[C@H](N)C(=O)O)C[C@H]1O[C@@H](n2cnc3c(N)ncnc32)[C@H](O)[C@@H]1O (some centres unmarked) [Samyr, S-adenosyl-1-methionine, reference compound]	–	–	–	–	–	–	–	–	–	–	–	–	–	–	–	–	–	–	–	changes in the transaminase levels (GOT and GPT) (rats fed with Nath diet [3]; 35th day of administration): a certain favourable action; protective action as regards the cholesteraemia (rats fed with Nath diet [3]; Legalon 70 mg/kg, Samyr 25 mg/kg, noticeably less than aminoethanethiosulphonic acid): a certain protective action; protection from the point of view of lipid infiltration (rats fed with Nath diet [3]; control drugs compared with aminoethanethiosulphonic acid): protection was found but was only half that given by the aminoethanethiosulphonic acid
OCCSCCCCCCCCCCSCCO [tiadenol, reference compound]	–	–	–	–	–	–	–	–	–	–	–	–	–	–	–	44	100	32	155	–
